This note sets out measurements from patent publication US10294243B2, “Bicyclic compounds as pesticides” (BAYER CROPSCIENCE AKTIENGESELLSCHAFT, priority 2014, dated 2019).

Molecules are shown by their SMILES. Read-outs that look alike come from different tables or passages of the source.

Series [1] concerns Myzus persicae. Description: Myzus persicae - spray test (bell pepper plants). It counts as in vivo. Particulars: application rate 4 ppm, after 6 days. On the procedure:
Myzus persicae—Spray Test Solvent: 7 parts by weight of dimethylformamide Emulsifier: alkylaryl polyglycol ether […] […] If the addition of ammonium salts or/and penetrants is required, these are each added in a concentration of 1000 ppm to the preparation solution. Bell pepper plants (Capsicum annuum) severely infested with the green peach aphid (Myzus persicae) are treated by spraying with the active compound preparation in the desired concentration.

Series [2] can be described thus: log P by HPLC on reversed-phase C18 columns (OECD Guideline 117); method [a] acidic pH 2.7, method [b] neutral pH 7.8. It is filed as physicochemical. Particulars: for chromatographic logP: reversed-phase C18 HPLC column.
Series [3] concerns Phaedon cochleariae. Description: Phaedon cochleariae - spray test. It is filed as in vivo. Particulars: application rate 500 g/ha, Chinese cabbage leaf discs, after 7 days. An excerpt:
Phaedon cochleariae—Spray Test
(§1) Emulsifier: alkylaryl polyglycol ether

Series [4] concerns Spodoptera frugiperda. Particulars: application rate 500 g/ha, maize leaf discs, after 7 days. On the procedure: Spodoptera frugiperda—Spray Test
Solvent: 78.0 parts by weight of acetone • • 1.5 parts by weight of dimethylformamide
as §1
(§2) To produce further test concentrations, the preparation is diluted with emulsifier-containing water.
After 7 days, the efficacy in % is determined 100% means that all the caterpillars have been killed; 0% means that no caterpillars have been killed.

In series [5] the test system is Tetranychus urticae. Description: Tetranychus urticae - spray test, OP-resistant. It is filed as in vivo. Particulars: application rate 500 g/ha, bean leaf discs, after 6 days. The procedure:
Tetranychus urticae—Spray Test, OP-Resistant
as §1
After 6 days, the efficacy in % is determined. 100% means that all the spider mites have been killed; 0% means that none of the spider mites have been killed.

Series [6] deals with Boophilus microplus. Put plainly: Boophilus microplus - injection test. Particulars: application rate 20 μg/animal, injection into engorged adult female cattle ticks, assessed after 7 days. It counts as in vivo. The procedure:
Boophilus microplus—Injection Test
Solvent: dimethyl sulphoxide
To produce a suitable preparation of active compound, 10 mg of active compound are mixed with 0.5 ml of solvent and the concentrate is diluted with solvent to the desired concentration.
1 μl of the active compound solution is injected into the abdomen of 5 engorged adult female cattle ticks (Boophilus microplus). The animals are transferred into dishes and kept in a climate-controlled room.
Efficacy is assessed after 7 days by laying of fertile eggs. Eggs which are not visibly fertile are stored in a climate-controlled cabinet until the larvae hatch after about 42 days. An efficacy of 100% means that none of the ticks has laid any fertile eggs; 0% means that all the eggs are fertile.

Series [7] has as its system Myzus persicae. Put plainly: Myzus persicae - spray test (Chinese cabbage leaf discs). Particulars: application rate 500 g/ha, after 6 days; for pest or weed control at 500 g/ha: Myzus persicae, foliar, 144 h, read-out: efficacy (aphids killed). It counts as in vivo. On the procedure: Myzus persicae—Spray Test
Solvent: 78 parts by weight of acetone • • 1.5 parts by weight of dimethylformamide
as §1, §2
After 6 days, the efficacy in % is determined 100% means that all the aphids have been killed; 0% means that none of the aphids have been killed.

Series [8] relates to Meloidogyne incognita. Put plainly: Meloidogyne incognita test. It counts as in vivo. As to conditions: application rate 20 ppm, lettuce, after 14 days. The procedure:
Meloidogyne Incognita Test
Solvent: 125.0 parts by weight of acetone
Vessels are filled with sand, active compound solution, an egg/larvae suspension of the southern root-knot nematode (Meloidogyne incognita) and lettuce seeds. The lettuce seeds germinate and the plants develop. The galls develop on the roots.
After 14 days, the nematicidal efficacy in % is determined by the formation of galls. 100% means that no galls were found; 0% means that the number of galls on the treated plants corresponds to the untreated control.

Setting [9] is: HPLC reversed-phase C18, method [a] acidic pH 2.7, read-out: logP[a].
The mark [10] stands for this setting: HPLC reversed-phase C18, method [b] neutral pH 7.8, read-out: logP[b].
Setting [11] is: HPLC reversed-phase C18, method [a] acidic pH 2.7.
The mark [12] stands for this setting: HPLC reversed-phase C18, method [b] neutral pH 7.8.

With `COc1cccc(-n2cnc3nc(-c4cccnc4)sc3c2=O)c1` [Compound 10, 6-(3-Methoxyphenyl)-2-(pyridin-3-yl)[1,3]thiazolo[4,5-d]pyrimidin-7(6H)-one], the “efficacy (kill of aphids)” value in series [1] is given as 96%. Also, the figures for the chromatographic logP in series [2] (setting [9]) and in series [2] (setting [10]) were 1.73 and 1.76, respectively.

Turning to `Cc1ccc(-n2cnc3nc(-c4cccnc4)sc3c2=O)cc1` [Compound 11], the “efficacy (beetle larvae killed)” value in series [3] turned out to be 100%. For the same molecule, the “efficacy (caterpillars killed)” value in series [4] was 100%. Besides, the “efficacy (spider mites killed)” value in series [5] is on record as 90%. The “logP[a]” value in series [2] (setting [11]) is 1.92. Besides, the “logP[b]” value in series [2] (setting [12]) is reported as 1.96.

With `Cc1cc(F)c(-n2c(C)nc3nc(-c4cccnc4)sc3c2=O)cc1[S+]([O-])CC(F)(F)F` (stereo not shown) [Compound 57, 6-{2-Fluoro-4-methyl-5-[(2,2,2-trifluoroethyl)sulphinyl]phenyl}-5-methyl-2-(pyridin-3-yl)[1,3]thiazolo[4,5-d]pyrimidin-7(6H)-one], the “efficacy (laying of fertile eggs)” value in series [6] came to 100%. Besides, in series [7], the pest or weed control at 500 g/ha was 100%. The “efficacy (spider mites killed)” value in series [5] amounted to 90%. Further, the chromatographic logP in series [2] (setting [9]) worked out at 2.25; in series [2] (setting [10]) it was 2.05.

As to `O=c1c2sc(-c3cccnc3)nc2ncn1-c1ccc([S+]([O-])C(F)(F)F)cc1` (stereo not shown) [Compound 63, 2-(Pyridin-3-yl)-6-{4-[(trifluoromethyl)sulphinyl]phenyl}[1,3]thiazolo[4,5-d]pyrimidin-7(6H)-one], in series [8], the “nematicidal efficacy (formation of galls)” value came to 90%. Also, in series [7], the pest or weed control at 500 g/ha stood at 90%. Further, the chromatographic logP in series [2] (setting [9]) is 2.03; in series [2] (setting [10]), 1.99.

`Cn1ccc(Cn2cnc3nc(-c4cccnc4)sc3c2=O)n1` [Compound 37]: the “efficacy (aphids killed)” value in series [7] is given as 90%. Besides, the “efficacy (beetle larvae killed)” value in series [3] was 100%. For the same molecule, in series [4], the “efficacy (caterpillars killed)” value is listed as 100%. The “logP[a]” value in series [2] (setting [11]) worked out at 0.97. The “logP[b]” value in series [2] (setting [12]) came to 1.08.

On to `O=c1c2sc(-c3cccnc3)nc2ncn1-c1cc(SCC2CC2)ccc1F` [Compound 44], for which the “efficacy (kill of aphids)” value in series [1] came out at 100%. Besides, the “logP[a]” value in series [2] (setting [11]) was determined as 2.91. The “logP[b]” value in series [2] (setting [12]) is 3.00.
